Results published in ChEMBL document CHEMBL1151044, “5,7-Diphenyl-3-ureidohexahydroazepin-2-ones as Cholecystokinin-B receptor ligands” (Bioorg Med Chem Lett, 1994).
pIC50: −log10 of the molar value.

Target: T1, Cholecystokinin receptor type A (Cavia porcellus, UniProt Q63931)
T1 sequence (Q63931 whole entry): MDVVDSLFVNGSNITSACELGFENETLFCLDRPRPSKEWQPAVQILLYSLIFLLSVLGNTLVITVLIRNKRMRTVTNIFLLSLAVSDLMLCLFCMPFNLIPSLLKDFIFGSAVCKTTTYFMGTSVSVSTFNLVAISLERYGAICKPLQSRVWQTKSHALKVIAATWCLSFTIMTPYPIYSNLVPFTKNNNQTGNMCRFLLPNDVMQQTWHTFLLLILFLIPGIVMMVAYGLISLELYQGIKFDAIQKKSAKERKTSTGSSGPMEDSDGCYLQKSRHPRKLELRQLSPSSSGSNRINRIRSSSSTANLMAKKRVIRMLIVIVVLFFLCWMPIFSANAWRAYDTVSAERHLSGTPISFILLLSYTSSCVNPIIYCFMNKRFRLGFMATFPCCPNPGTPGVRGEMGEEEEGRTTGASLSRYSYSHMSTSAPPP
Assay: Inhibitory activity against cholecystokinin-A (CCK-A) receptor in pancreas of guinea pig.

pIC50 | SMILES
6.15 | Cc1cccc(NC(=O)N[C@@H]2C[C@H](c3ccc(F)cc3)C[C@H](c3ccccc3)N(CC(=O)NC(C)(C)C)C2=O)c1
8.96 | Cc1ccc([C@@H]2C[C@H](c3ccccc3)N(CC(=O)NC(C)(C)C)C(=O)[C@H](NC(=O)Nc3cccc(C)c3)C2)cc1
6.09 | CCc1ccccc1[C@@H]1C[C@H](c2ccccc2)N(CC(=O)NC(C)(C)C)C(=O)[C@H](NC(=O)Nc2cccc(C)c2)C1
8.00 | Cc1cccc(NC(=O)N[C@H]2C[C@H](c3ccccc3)C[C@H](c3ccccc3)N(CC(=O)NC(C)(C)C)C2=O)c1
8.55 | Cc1cccc(NC(=O)N[C@@H]2C[C@H](c3ccccc3)C[C@H](c3ccc(F)cc3)N(CC(=O)NC(C)(C)C)C2=O)c1
8.74 | Cc1ccccc1[C@@H]1C[C@H](c2ccccc2)N(CC(=O)NC(C)(C)C)C(=O)[C@H](NC(=O)Nc2cccc(F)c2)C1
6.03 | Cc1cccc(NC(=O)N[C@@H]2C[C@H](c3ccccc3C)C[C@H](c3ccccc3)N(CC(=O)NC(C)(C)C)C2=O)c1 (stereo in doubt; (-)-10i)
< 8.00 | Cc1ccccc1[C@@H]1C[C@H](c2ccccc2)N(CC(=O)NC(C)(C)C)C(=O)[C@H](NC(=O)Nc2cccc([N+](=O)[O-])c2)C1
6.08 | Cc1cccc(NC(=O)N[C@@H]2C[C@H](c3ccccc3)C[C@H](c3ccccc3)N(CC(=O)NC(C)(C)C)C2=O)c1
6.24 | Cc1cccc(NC(=O)N[C@@H]2C[C@H](c3ccccc3C)C[C@H](c3ccccc3)N(CC(=O)NC(C)(C)C)C2=O)c1 (stereo in doubt; 10i)
8.89 | Cc1cccc(NC(=O)N[C@@H]2C[C@H](c3cccc(C)c3)C[C@H](c3ccccc3)N(CC(=O)NC(C)(C)C)C2=O)c1
6.25 | Cc1cccc(NC(=O)N[C@@H]2C[C@H](c3ccccc3C)C[C@H](c3ccccc3)N(CC(=O)NC(C)C)C2=O)c1
9.00 | Cc1cccc(NC(=O)N[C@@H]2C[C@H](c3ccccc3)C[C@H](c3cccc(F)c3)N(CC(=O)NC(C)(C)C)C2=O)c1
6.21 | Cc1cccc(NC(=O)N[C@@H]2C[C@H](c3ccccc3C)C[C@H](c3ccccc3)N(CC(=O)NC(C)(C)C)C2=O)c1 (stereo in doubt; (+)-10i)
6.12 | COc1ccccc1[C@@H]1C[C@H](c2ccccc2)N(CC(=O)NC(C)(C)C)C(=O)[C@H](NC(=O)Nc2cccc(C)c2)C1
8.80 | Cc1cccc(NC(=O)N[C@@H]2C[C@H](c3ccccc3)C[C@H](c3cccc(C)c3)N(CC(=O)NC(C)(C)C)C2=O)c1
6.01 | Cc1ccc([C@H]2C[C@@H](c3ccccc3)C[C@@H](NC(=O)Nc3cccc(C)c3)C(=O)N2CC(=O)NC(C)(C)C)cc1

Second part, the compound before the results:

SMILES | pIC50
COc1ccc(NC(=O)N[C@@H]2C[C@H](c3ccccc3C)C[C@H](c3ccccc3)N(CC(=O)NC(C)(C)C)C2=O)cc1 | 8.66
Cc1cccc(NC(=O)N[C@@H]2C[C@H](c3ccccc3C)C[C@H](c3ccccc3)N(CC(=O)Nc3ccc(Cl)cc3)C2=O)c1 | < 8.00
Cc1cccc(NC(=O)N[C@@H]2C[C@H](c3ccccc3C)C[C@H](c3ccccc3)N(CC(=O)Nc3ccccc3C)C2=O)c1 | 8.96
Cc1ccccc1[C@@H]1C[C@H](c2ccccc2)N(CC(=O)NC(C)(C)C)C(=O)[C@H](NC(=O)Nc2cccc(C(F)(F)F)c2)C1 | 5.60
Cc1cccc(NC(=O)N[C@@H]2C[C@H](c3ccccc3C)C[C@H](c3ccccc3)N(CC(=O)Nc3cccc(Cl)c3)C2=O)c1 | < 8.00
Cc1ccccc1[C@@H]1C[C@H](c2ccccc2)N(CC(=O)NC(C)(C)C)C(=O)[C@H](NC(=O)Nc2ccc(Cl)cc2)C1 | < 8.00
CCc1cccc(NC(=O)N[C@@H]2C[C@H](c3ccccc3C)C[C@H](c3ccccc3)N(CC(=O)NC3(C)CCCCC3)C2=O)c1 | < 8.00
Cc1cccc(NC(=O)N[C@@H]2C[C@H](c3ccccc3C)C[C@H](c3ccccc3)N(CC(=O)Nc3ccccc3Cl)C2=O)c1 | 8.96
Cc1ccc(NC(=O)CN2C(=O)[C@H](NC(=O)Nc3cccc(C)c3)C[C@H](c3ccccc3C)C[C@@H]2c2ccccc2)cc1 | < 8.00
Cc1cccc(NC(=O)N[C@@H]2C[C@H](c3ccccc3C)C[C@H](c3ccccc3)N(CC(=O)NC3(C)CCCCC3)C2=O)c1 | 8.36
Cc1cccc(NC(=O)N[C@@H]2C[C@H](c3ccccc3C)C[C@H](c3ccccc3)N(CC(=O)NC(C(C)(C)C)C(C)(C)C)C2=O)c1 | < 8.00
